Experimental data: patent US8846739B2, “TGR5 agonists” (Exelixis Patent Company LLC, priority 2009, dated 2014)

Assays:
h-TGR5 = biological target: T1, h-TGR5 (Homo sapiens, UniProt Q8TDU6); experiment: TGR5 cAMP Assay using Cisbio cAMP Dynamic 2 htrf assay kit; assay type: cell-based; settings: hTGR5CRE-luc HEK 293 cells
T1 sequence (Q8TDU6 1-330): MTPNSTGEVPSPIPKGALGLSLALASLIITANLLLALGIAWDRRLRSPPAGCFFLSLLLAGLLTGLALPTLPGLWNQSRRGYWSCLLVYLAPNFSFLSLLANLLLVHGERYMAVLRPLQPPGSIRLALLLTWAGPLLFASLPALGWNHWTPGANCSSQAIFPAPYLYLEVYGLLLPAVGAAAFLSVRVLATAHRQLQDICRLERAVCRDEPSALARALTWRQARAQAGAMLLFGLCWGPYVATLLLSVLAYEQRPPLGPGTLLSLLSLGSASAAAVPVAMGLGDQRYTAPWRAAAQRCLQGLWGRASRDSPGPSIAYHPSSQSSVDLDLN

human TGR5 (h-TGR5) = biological target: T2, human TGR5 (h-TGR5) (Homo sapiens, UniProt Q8TDU6); experiment: TGR5/CRE-Luciferase Assay; assay type: cell-based; settings: HEK 293 hTGR5/CRE-Luc cells, 6 hours incubation, read-out: CRE-Luc Agonist (EC50)
T2 sequence (Q8TDU6 1-330): T1 sequence (Q8TDU6 1-330)
Method in brief: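 HEK 293 CRE-Luciferase cells stably expressing the receptor, plated in DMEM 18-20 h before assay, then exposed to serially diluted compounds (DMEM with 5% DMSO) for 6 h. Luciferase read-out after lysis; EC50 from dose-response.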

| SMILES | EC50 (h-TGR5) [nM] | EC50 (human TGR5 (h-TGR5)) [nM] |
| --- | --- | --- |
| COc1cc(C(C)(C)c2cnc(SCc3c(F)cc(C(=O)N[C@H]4CCC[N+](C)(C)C4)cc3Cl)n2-c2ccc(F)cc2)ccc1Cl [Example 2d, (3S)-3-({[3-chloro-4-({[5-{1-[4-chloro-3-(methyloxy)phenyl]-1-methylethyl}-1-(4-fluorophenyl)-1H-imidazol-2-yl]thio}methyl)-5-fluorophenyl]carbonyl}amino)-1,1-dimethylpiperidinium] | < 100 | < 100 |
| COc1cc(C(C)(C)c2cnc(SCc3c(F)cc(S(=O)(=O)N(CCC[N+](C)(C)C)CC(=O)O)cc3Cl)n2-c2ccc(F)cc2)ccc1Cl [Compound 14s, 3-[(carboxymethyl){[3-chloro-4-({[5-{1-[4-chloro-3-(methyloxy)phenyl]-1-methylethyl}-1-(4-fluorophenyl)-1H-imidazol-2-yl]thio}methyl)-5-fluorophenyl]sulfonyl}amino]-N,N,N-trimethylpropan-1-aminium] | < 100 | < 100 |
| COc1cc(C(C)(C)c2cnc(SCc3c(F)cc(S(=O)(=O)N(C)[C@@H](CCC[N+](C)(C)C)C(=O)O)cc3F)n2-c2ccc(F)cc2)ccc1Cl [Compound 16, (S)-4-carboxy-4-(4-((5-(2-(4-chloro-3-methoxyphenyl)propan-2-yl)-1-(4-fluorophenyl)-1H-imidazol-2-ylthio)methyl)-3,5-difluoro-N-methylphenylsulfonamido)-N,N,N-trimethylbutan-1-aminium 2,2,2-trifluoroacetate] | < 100 | < 100 |
| COc1cc(C(C)(C)c2cnc(SCc3c(F)cc(S(=O)(=O)N4CCC[C@@H]([N+](C)(C)C)C4)cc3Cl)n2-c2ccc(F)cc2)ccc1F [Compound 11p, (3R)-1-{[3-chloro-5-fluoro-4-({[5-{1-[4-fluoro-3-(methyloxy)phenyl]-1-methylethyl}-1-(4-fluorophenyl)-1H-imidazol-2-yl]thio}methyl)phenyl]sulfonyl}-N,N,N-trimethylpiperidin-3-aminium] | < 100 | < 100 |
| COc1cc(C(C)(C)c2cnc(SCc3c(F)cc(S(=O)(=O)NCCCC[N+](C)(C)C)cc3F)n2-c2ccc(F)cc2)ccc1Cl [Example 6r, 4-({[4-({[5-{1-[4-chloro-3-(methyloxy)phenyl]-1-methylethyl}-1-(4-fluorophenyl)-1H-imidazol-2-yl]thio}methyl)-3,5-difluorophenyl]sulfonyl}amino)-N,N,N-trimethylbutan-1-aminium] | < 100 | < 100 |
| COc1cc(C(C)(C)c2cnc(SCc3c(F)cc(C(=O)N[C@H]4CC[N+](C)(Cc5ccc(F)cc5)C4)cc3Cl)n2-c2ccc(F)cc2)ccc1Cl (stereo partly drawn) [Example 2e, (3S)-3-({[3-chloro-4-({[5-{1-[4-chloro-3-(methyloxy)phenyl]-1-methylethyl}-1-(4-fluorophenyl)-1H-imidazol-2-yl]thio}methyl)-5-fluorophenyl]carbonyl}amino)-1-[(4-fluorophenyl)methyl]-1-methylpyrrolidinium] | < 100 | < 100 |
| COc1cc(C(C)(C)c2cnc(SCc3c(F)cc(S(=O)(=O)N(CCC[N+](C)(C)C)CC(N)=O)cc3F)n2-c2ccc(F)cc2)ccc1Cl [Compound 12h, 3-(N-(2-amino-2-oxoethyl)-4-((5-(2-(4-chloro-3-methoxyphenyl)propan-2-yl)-1-(4-fluorophenyl)-1H-imidazol-2-ylthio)methyl)-3,5-difluorophenylsulfonamido)-N,N,N-trimethylpropan-1-aminium 2,2,2-trifluoroacetate] | < 100 | < 100 |
| COc1cc(C(C)(C)c2cnc(COc3c(F)cc(S(=O)(=O)N(C)CCC[N+](C)(C)C)cc3Cl)n2-c2ccc(F)cc2)ccc1Cl [Compound 12e, 3-(3-Chloro-4-((5-(2-(4-chloro-3-methoxyphenyl)propan-2-yl)-1-(4-fluorophenyl)-1H-imidazol-2-yl)methoxy)-5-fluoro-N-methylphenylsulfonamido)-N,N,N-trimethylpropan-1-aminium 2,2,2-trifluoroacetate] | < 100 | < 100 |
| COc1cc(C(C)(C)c2cnc(SCc3c(F)cc(S(=O)(=O)N(CCC[N+](C)(C)C)[C@@H](C(=O)O)C(C)C)cc3F)n2-c2ccc(F)cc2)ccc1Cl [Compound 14q, 3-([(1R)-1-carboxy-2-methylpropyl]{[4-({[5-{1-[4-chloro-3-(methyloxy)phenyl]-1-methylethyl}-1-(4-fluorophenyl)-1H-imidazol-2-yl]thio}methyl)-3,5-difluorophenyl]sulfonyl}amino)-N,N,N-trimethylpropan-1-aminium] | < 100 | < 100 |
| COc1cc(C(C)(C)c2cnc(SCc3c(F)cc(S(=O)(=O)NCCC[N+](C)(C)C)cc3Cl)n2-c2ccc(F)cc2)ccc1Cl [Example 6j, 3-({[3-chloro-4-({[5-{1-[4-chloro-3-(methyloxy)phenyl]-1-methylethyl}-1-(4-fluorophenyl)-1H-imidazol-2-yl]thio}methyl)-5-fluorophenyl]sulfonyl}amino)-N,N,N-trimethylpropan-1-aminium] | < 100 | < 100 |
| COc1cc(C(C)(C)c2cnc(SCc3c(F)cc(S(=O)(=O)N(CCCO)CCC[N+](C)(C)C)cc3F)n2-c2ccc(F)cc2)ccc1Cl [Compound 12g, 3-(4-((5-(2-(4-chloro-3-methoxyphenyl)propan-2-yl)-1-(4-fluorophenyl)-1H-imidazol-2-ylthio)methyl)-3,5-difluoro-N-(3-hydroxypropyl)phenylsulfonamido)-N,N,N-trimethylpropan-1-aminium 2,2,2-trifluoroacetate] | < 100 | < 100 |
| COc1cc(C(C)(C)c2cnc(SCc3c(F)cc(S(=O)(=O)N(CCC[n+]4ccccc4)[C@H](C)C(=O)O)cc3Cl)n2-c2ccc(F)cc2)ccc1Cl [Compound 15a, (R)-1-(3-(N-(1-carboxyethyl)-3-chloro-4-((5-(2-(4-chloro-3-methoxyphenyl)propan-2-yl)-1-(4-fluorophenyl)-1H-imidazol-2-ylthio)methyl)-5-fluorophenylsulfonamido)propyl)pyridinium chloride] | < 100 | < 100 |
| COc1ccc(C(C)(C)c2cnc(SCc3c(F)cc(CCC[N+](C)(C)C)cc3F)n2-c2ccc(F)cc2)cc1Cl [Compound 19c, 3-(4-((5-(2-(3-chloro-4-methoxyphenyl)propan-2-yl)-1-(4-fluorophenyl)-1H-imidazol-2-ylthio)methyl)-3,5-difluorophenyl)-N,N,N-trimethylpropan-1-aminium 2,2,2-trifluoroacetate] | < 100 | < 100 |
| COc1cc(C(C)(C)c2cnc(SCc3c(F)cc(S(=O)(=O)N4CCC[C@@H](C[N+](C)(C)C)C4)cc3Cl)n2-c2ccc(F)cc2)ccc1F [Compound 11u, [(3S)-1-{[3-chloro-5-fluoro-4-({[5-{1-[4-fluoro-3-(methyloxy)phenyl]-1-methylethyl}-1-(4-fluorophenyl)-1H-imidazol-2-yl]thio}methyl)phenyl]sulfonyl}piperidin-3-yl]-N,N,N-trimethylmethanaminium] | < 100 | < 100 |
| COc1cc(-n2c(C(C)(C)c3ccc(F)c(Cl)c3)cnc2SCc2c(F)cc(CCC[N+](C)(C)C)cc2F)ccc1F [Compound 19b, 3-(4-((5-(2-(3-chloro-4-fluorophenyl)propan-2-yl)-1-(4-fluoro-3-methoxyphenyl)-1H-imidazol-2-ylthio)methyl)-3,5-difluorophenyl)-N,N,N-trimethylpropan-1-aminium 2,2,2-trifluoroacetate] | < 100 | < 100 |
